Data as given in patent US7572768B2, “Methods for identifying compounds for regulating muscle mass or function using corticotropin releasing factor receptors” (priority 2001, dated 2009).
Ends that are not written are not given here.

Columns and labels:
Type in all cases: in vivo
skeletal muscle atrophy [1] = test: animal models of skeletal muscle atrophy (summary of FIGS. 1-9); settings: theophylline administered alone in these atrophy models
Protocol: Theophylline was added to potentiate the duration and magnitude of action of the CRFR agonist therefore resulting in increased efficacy of these compounds. […] Statistical significance of the results was determined using ANCOVA (Douglas C. Montgomery, Design and Analysis of Experiments, John Wiley and Sons, New York (2nd ed. 1984)). Abbreviations used in FIGS. 1-9: g-gram; SEM-standard error of the mean.

skeletal muscle atrophy [2] = test: Example 13: prophylactic treatment of skeletal muscle atrophy in comatose subject; settings: human 60 kg, slow i.v. infusion once each day, 5 ml of 12 mg/ml stock in 500 ml saline
Protocol: A human subject weighing 60 kg is admitted to the hospital in a comatose state. The subject is treated by this method to prevent atrophy of the skeletal muscle of the entire body due to disuse in the comatose state. Specifically, once each day while in the coma, the subject is administered, via slow intravenous infusion, approximately 500 ml of an aqueous solution that is prepared by addition of 5 ml of the following stock solution to 500 ml of sterile saline: […]

[3] = system: denervation-induced atrophy of skeletal muscle; test: mouse sciatic nerve denervation atrophy model; settings: FIG. 5, day nine
Protocol: Legend: A—physiological saline (control); B—sauvagine (0.01 mg/kg)+theophylline; C—sauvagine (0.03 mg/kg)+theophylline; D—sauvagine (0.1 mg/kg)+theophylline; E—sauvagine (1.0 mg/kg)+theophylline; *—p≦0.05 compared to saline. Following denervation of the right sciatic nerve, male mice were injected subcutaneously in the midscapular region twice daily with sauvagine, at the doses indicated above or vehicle control (physiological saline) for nine days. Sauvagine was co-administered with 30 mg/kg theophylline. On day nine, the medial gastrocnemius muscle was removed and weighed to determine the degree of atrophy.
Legend: A—water (control); B—sauvagine (0.1 mg/kg/d); C—sauvagine (0.3 mg/kg/d); D—sauvagine (1.0 mg/kg/d); *—p≦0.05 compared to water. Following denervation of the right sciatic nerve, male mice were dosed with either sauvagine or vehicle control (physiological saline) by continuous infusion using an Alzet osmotic minipump at 5 μl/hr until the end of the experimental period (without additional theophylline). The daily delivered dose of sauvagine is indicated above. Minipump implantation was performed at the time of sciatic nerve denervation. On day nine the tibialis anterior muscle was removed and weighed to determine the degree of atrophy.
Legend: A—water (control); B—sauvagine (1 mg/kg/d); C—urocortin (1.0 mg/kg/d); *—p≦0.05 compared to water. Following denervation of the right sciatic nerve, male mice were dosed with the above indicated agents or vehicle control (physiological saline) by continuous infusion using an Alzet osmotic minipump at 5 μl/hr until the end of the experimental period (without additional theophylline). The daily delivered dose of the agents is indicated above. Minipump implantation was performed at the same time as the sciatic nerve denervation. On day nine the tibialis anterior muscle was removed and weighed to determine the degree of atrophy.
Legend: A-C—wild-type mice; D-F—CRF2R knockout mice. A and D—water (control); B and E—sauvagine (0.3 mg/kg/d); C and F—sauvagine (1.0 mg/kg/d); *—p≦0.05 compared to saline. Following denervation of the right sciatic nerve, female wild-type and CRF2R knockout mice were dosed with sauvagine or vehicle control by continuous infusion using an Alzet osmotic minipump at 5 μl/hr for nine days at the daily delivered dose indicated above. On day nine, the tibialis anterior muscle was removed and weighed to determine the degree of atrophy.
The sciatic nerve denervation atrophy model involves anesthetizing the animal followed by the surgical removal of a short segment of either the right or left sciatic nerve, e.g., in mice the sciatic nerve is isolated approximately at the midpoint along the femur and a 3-5 mm segment is removed. This denervates the lower hind limb musculature resulting in atrophy of these muscles. Typically, innervation to the biceps femoris is left intact to provide satisfactory motion of the knee for virtually normal ambulation. Typically, in untreated animals, muscle mass of the denervated muscles is reduced 30-50% ten days following denervation. Following denervation, test compounds are administered e.g., by injection or by continuous infusion, e.g., via implantation of an osmotic minipump (e.g., Alzet, Palo Alto, Calif.), to determine their effect on denervation induced skeletal muscle atrophy. At various times following denervation, the animals are euthanized and lower leg muscles are dissected rapidly from both the denervated and nondenervated legs, the muscles, cleaned of tendons and connective tissue, are weighed. The extent of atrophy in the affected muscles is analyzed, for example, by measuring muscle mass, muscle cross-sectional area, myofiber cross-sectional area or contractile protein content.

[4] = system: disuse-induced atrophy of skeletal muscle; test: mouse leg casting disuse atrophy model; settings: male mice, 0.3 mg/kg s.c. twice daily + theophylline 30 mg/kg i.p., ten days
Protocol: (§1) Legend: A—physiological saline (control); B—theophylline; C—sauvagine (0.03 mg/kg)+theophylline; D—sauvagine (0.1 mg/kg)+theophylline; E—sauvagine (0.3 mg/kg)+theophylline; *—p≦0.05 compared to saline. Following casting of the right hind leg, male mice were injected subcutaneously in the midscapular region twice daily, with sauvagine or vehicle control (physiological saline) for ten days at the daily delivered dose indicated. Sauvagine was co-administered with twice daily intra-peritoneal dosing of the phosphodiesterase inhibitor theophylline (30 mg/kg). On day ten, the medial gastrocnemius and tibialis anterior muscles were removed and weighed to determine the degree of atrophy.
as §1, with “B—urocortin” for “B—theophylline; C—sauvagine (0.03 mg/kg)+theophylline; D—sauvagine (0.1 mg/kg)+theophylline; E—sauvagine”, “urocortin” for “sauvagine”, “days. Urocortin was administered” for “days”, “doses indicated in the description of FIGS. 6A and 6B. Urocortin” for “daily delivered dose indicated. Sauvagine”
Legend: A—non casted muscle control; B—casted muscle, saline control; C—casted muscle, sauvagine (0.3 mg/kg)+theophylline (30 mg/kg); *—p≦0.05 compared to saline. Following casting of the right hind leg, male mice were injected subcutaneously in the midscapular region twice daily, with either sauvagine or vehicle control (physiological saline) for ten days at the doses indicated above. Sauvagine was co-administered 30 mg/kg theophylline. On day ten, the EDL and soleus muscles were removed and absolute force and mass measurements taken to determine the degree of atrophy.
The leg casting disuse atrophy model involves casting one hind leg of an animal from the knee down through the foot. Typically, muscle mass is reduced 20-40% after ten days of casting. Following casting, test compounds are administered by injection or by continuous infusion via implantation of an osmotic minipump (e.g., Alzet, Palo Alto, Calif.) to determine their effect on leg casting induced skeletal muscle atrophy. At various times following leg casting, the extent of atrophy in the affected muscles is analyzed as described above for the denervation model.
The extensor digitorum longus (EDL) and soleus muscles are removed, tendon-to-tendon from the casted mouse leg. A silk suture is tied to each tendon of the isolated muscles and the muscles are placed into a plexiglass chamber filled with Ringer solution (137 mM sodium chloride, 24 mM sodium bicarbonate, 11 mM glucose, 5 mM potassium chloride, 1 mM magnesium sulfate, 1 mM sodium phosphate, 0.025 mM tubocurarine, all at pH 7.4 and oxygenated with 95% oxygen/5% carbon dioxide) constantly bubbled with 95% oxygen/5% carbon dioxide maintained at 25° C. Muscles are aligned horizontally between a servomotor lever arm (Model 305B-LR Cambridge Technology Inc., Watertown Mass., USA) and the stainless steel hook of a force transducer (Model BG-50; Kulite Semiconductor Products Inc., Leonia, N.J., USA) and field stimulated by pulses transmitted between two platinum electrodes placed longitudinally on either side of the muscle. Square wave pulses (0.2 ms duration) generated by a personal computer with a Labview board (Model PCI-MIO 16E-4), Labview Inc., Austin, Tex., USA) are amplified (Acurus power amplifier model A25, Dobbs Ferry, N.Y., USA) to increase titanic contraction. Stimulation voltage and muscle length (Lo) are adjusted to obtain maximum isometric twitch force. Maximum titanic force production (Po) is determined from the plateau of the frequency-force relationship.

Compound: Cn1c(=O)c2[nH]cnc2n(C)c1=O [Theophylline, theophylline]
- effect on skeletal muscle atrophy (skeletal muscle atrophy [1]): had no effect

Compound: Urocortin-II (VILSLDVPIGLLRILLEQARYKAARNQAATNAQILAHV; listed as Mus musculus) [CRF analog]
- skeletal muscle mass and function (skeletal muscle atrophy [2]): measurable preservation of skeletal muscle mass and function

Compound: urocortin (DNPSLSIDLTFHLLRTLLELARTQSQRERAEQNRIIFDSV; ends and bridges not checked; UniProt P55089 83-122, looked up) [mammalian congener of urotensin, CRFR agonist (Bachem Biosciences, Inc.)]
- hypertrophy of the non-denervated leg (tibialis anterior muscle) ([3]; 1.0 mg/kg/d by osmotic minipump): hypertrophy of the non-denervated leg was observed
- denervation-induced atrophy of the tibialis anterior muscle (muscle weight) ([3]; male mice, 1 mg/kg/d continuous infusion by osmotic minipump, no theophylline): inhibit denervation-induced atrophy
- disuse-induced atrophy of the tibialis anterior muscle (muscle weight) ([4]; FIG. 6A): inhibits disuse-induced atrophy
- disuse-induced atrophy of the medial gastrocnemius muscle (muscle weight) ([4]; FIG. 6B): inhibits disuse-induced atrophy
